Measurements: patent US9717715B2, “Method of combination therapy using an anti-C-Met antibody” (Samsung Electronics Co., Ltd., priority 2013, dated 2017)

Tests used:
[1] = tested on: breast cancer cell line BT-474; test: Combination cell viability CTG assay, BT-474; assay type: cell-based; conditions: BT-474, 72 hours
Description: (§1) Cell proliferation in response to antibody treatment in vitro was assessed by a CTG (Promega) assay according to manufacturer's instructions. EBC1, HT-29, BT-474, HCC1806, HCC1954 and MKN45 cells were respectively plated at a density of 5×10^3 cells per well in FBS 10% (v/v) RPMI 1640 medium (Gibco) onto a 96-well plate (BD). The HT-29 (HTB-38), BT-474 (HTB-20), HCC1806 (CRL-2335) and HCC1954 (CRL-2338) cell lines were all purchased from ATCC. MKN45 (JCRB0254) and EBC1 (JCRB0820) cell lines were purchased from the Health Science Research Resource Bank. After 24 hours incubation, the c-Met targeting antibody huAbF46-H4-A1 (IgG2 Fc) was added alone or in combination with another drug (lapatinib, regorafenib or vemurafenib) diluted in 10% FBS (v/v) RPMI medium. Lapatinib, regorafenib and vemurafenib were purchased from Selleck Chemicals.
For the combination treatment of each experiment, IC20 concentration of one drug (drug A) and differing amounts of the other drug (drug B) were treated to see if the efficacy of drug B is improved by combi-treatment with drug A in a dose-dependent manner (see FIGS. 16-22). After 72 hours incubation, 100 μL of the CTG reagent (Promega) was added to each well followed by incubation at 37° C. for 30 minutes. The luminescence was measured using an Envision Multilabel Plate Reader (Perkin Elmer).

[2] = tested on: human gastric cancer MKN45 cells; test: MKN45 orthotopic xenograft (metastasis); assay type: in vivo, mouse; conditions: 5-FU group, dose not given
From the text: For the MKN45 orthotopic xenograft experiment, human gastric cancer MKN45 cells (Japanese Cancer Research Bank, JCRB, Tokyo, Japan) were inoculated into donor BALB/C nude mice. When the tumor size reached the size of 600-800 mm3, the donor mice were euthanized, and the tumor was excised through sterile surgical procedure. The tumors were cut into fragments the size of 1×1×1 mm and implanted into the wall of great gastric curvature of recipient mice through sterile surgery under isoflurane anesthesia. 7 days after the surgery, recipient mice with orthotopic tumors were randomized into groups according to body weight and dosing was commenced. huAbF46-H4-A1 (IgG2 Fc) was injected into a vein once a week for 9 weeks. At the end of the in vivo study, orthotopic tumor weight was recorded and metastasis to the other organ was checked by macroscopic examination.

[3] = tested on: colorectal cancer cell line HT29; test: Combination cell viability CTG assay, HT29; assay type: cell-based; conditions: HT29, 72 hours, FIG. 19
Description: as §1
(§2) After 72 hours incubation, 100 μL of the CTG reagent (Promega) was added to each well followed by incubation at 37° C. for 30 minutes. The luminescence was measured using an Envision Multilabel Plate Reader (Perkin Elmer).

[4] = tested on: breast cancer cell line HCC1806; test: Combination cell viability CTG assay, HCC1806; assay type: cell-based; conditions: HCC1806, 72 hours, FIG. 17
Description: as §1, §2

[5] = tested on: breast cancer cell line HCC1954; test: Combination cell viability CTG assay, HCC1954; assay type: cell-based; conditions: HCC1954, 72 hours, FIG. 18
Description: as §1, §2

[6] = tested on: MHCC97H (human liver cancer cell line); test: MHCC97H xenograft model; assay type: in vivo, mouse; conditions: 30 mg/kg p.o. q.d. x 4 weeks
Description: The antitumor activity of huAbF46-H4-A1 (IgG2 Fc) was evaluated in a BALB/C nude mouse MHCC97H (human liver cancer cell line) xenograft model (referring to Example 16.2). Approximately 3 million MHCC97H cells in 100 μL of serum-free media were injected via s.c. to each of the 140 mice under anesthesia by 1-2% isoflurane. Ten days after subcutaneous inoculation with MHCC97H tumor cells, dosing commenced in the following treatment groups: 0 (PBS vehicle), 0.2, 1, 5 or 10 mg/kg huAbF46-H4-A1 (IgG2 Fc) i.v., q.w.×4 weeks; 30 mg/kg sorafenib p.o., q.d.×4 weeks (positive control). Each group consisted of 15 mice. Tumor volumes and body weights were measured two to three times a week for total study period about 4 weeks. The tumor volume (V) was calculated as follows: V (mm^3)={long axis length (mm)×(short axis length (mm))^2}/2.

SMILES: CNC(=O)c1cc(Oc2ccc(NC(=O)Nc3ccc(Cl)c(C(F)(F)F)c3)c(F)c2)ccn1 [regorafenib]
- anti-tumor efficacy (cell viability) when co-treated with huAbF46-H4-A1 (IgG2 Fc) ([1]; FIG. 20): significantly improved

SMILES: O=c1[nH]cc(F)c(=O)[nH]1 [Antibody 5-FU, 5-FU, reference compound]
- Number of metastasis lesion [2]: 0

SMILES: CS(=O)(=O)CCNCc1ccc(-c2ccc3ncnc(Nc4ccc(OCc5cccc(F)c5)c(Cl)c4)c3c2)o1 [lapatinib]
- anti-tumor efficacy (cell viability) when co-treated with huAbF46-H4-A1 (IgG2 Fc) [3]: significantly improved
- anti-tumor efficacy (cell viability) when co-treated with huAbF46-H4-A1 (IgG2 Fc) ([1]; FIG. 16): significantly improved
- anti-tumor efficacy (cell viability) when co-treated with huAbF46-H4-A1 (IgG2 Fc) [4]: significantly improved
- anti-tumor efficacy (cell viability) when co-treated with huAbF46-H4-A1 (IgG2 Fc) [5]: significantly improved

SMILES: CNC(=O)c1cc(Oc2ccc(NC(=O)Nc3ccc(Cl)c(C(F)(F)F)c3)cc2)ccn1 [sorafenib, reference compound]
- tumor growth [6]: significant inhibition of MHCC97H tumor growth
